B1: IL-33: recombinant mouse IL-33 (BioLegend); alarmin (protein, UniProt Q8BVZ5 1-266, looked up)
Interleukin-33: MRPRMKYSNSKISPAKFSSTAGEALVPPCKIRRSQQKTKEFCHVYCMRLRSGLTIRKETSYFRKEPTKRYSLKSGTKHEENFSAYPRDSRKRSLLGSIQAFAASVDTLSIQGTSLLTQSPASLSTYNDQSVSFVLENGCYVINVDDSGKDQEQDQVLLRYYESPCPASQSGDGVDGKKLMVNMSPIKDTDIWLHANDKDYSVELQRGDVSPPEQAFFVLHKKSSDFVSFECKNLPGTYIGVKDNQLALVEEKDESCNNIMFKLSKI

Columns and labels:
[1] = test system: colonic Rorγ^+ Tregs; test: Mono-colonization of germ free mice with single bacterial species; colonic Rorγ+ Tregs by flow cytometry; format: in vivo, Germfree C57BL/6J mice
Experimental: A panel of bacterial species selected from the microbiota of the human gastrointestinal tract were tested for their ability to induce the production of Rorγ^+ Tregs. Bacteria were obtained from the ATCC, BEI Resources, or the German Collection of Microorganisms and Cell Cultures (DSMZ), or from the laboratory collections at Harvard Medical School. Anaerobic bacteria were cultured under strictly anaerobic conditions (80% N2, 10% H2, 10% CO2) at 37° C. in an anaerobic chamber.
Germfree C57BL/6J were maintained in sterile isolators, and were inoculated by gavage with single bacterial species at 4 weeks of age, then housed in gnobiotic isolators. After 2 weeks, mice were sacrificed, colon tissue was harvested, cleaned of luminal content and treated with RPMI containing 1 mM DTT, 20 mM EDTA and 2% FBS at 37° C. for 15 min to remove epithelial cells. The colon tissue was then minced and dissociated in collagenase solution (1.5 mg/ml collagenase II (Gibco), 0.5 mg/ml dispase and 1% FBS in RPMI) with constantly stirring at 37° C. for 45 min. […] Cells were analyzed with a BD LSRII flow cytometer, and data analysis was performed with FlowJo (Tree Star) software. The proportion of Rorγ^+ Tregs was determined within the total population of CD4^+FoxP3^+ Treg cells, and the significance of the difference relative to unmanipulated germfree mice determined using a two-tailed Student's T-test. […]

[2] = test system: Rorγ^+ Tregs; test: IL-33 administration to mice; response of Rorγ+ Tregs; format: in vivo; conditions: recombinant mouse IL-33 i.p.
Experimental: Mice were bred in a pathogen-free facility or in germ-free isolators. For IL-33 administration, recombinant mouse IL-33 (BioLegend) was administered i.p. at 2 μg/injection every other day for 7 days.

Molecule | induction of production of Rorγ^+Helios^− LP Tregs ([1]; germ free mice colonized with single bacterial species for 2 weeks, FIGS. 4D, 4E and 5) | ability to promote colonic Treg production (proportions) ([1]; within the Bacteroides genus, mono-colonized germ free mice) | response of Rorγ^+ Tregs to IL-33 [2]
Bacteroides fragilis | capable of inducing production | low | 
B1 |  |  | do not respond
